{"source": "patent US11099176B2", "about": "(priority 2015, dated 2021)", "key": {"[1]": {"target": "Marinobacter sp. msLacBP6 variant 187C, 70M, SEQ ID NO: 53, Acrylodan conjugate, immobilized on Ni-NTA beads", "experiment": "Lactate titration of immobilized conjugate on magnetic Ni-NTA beads", "conditions": "read-out: trueKd (lactate), λ1 452, λ2 525 nm"}, "[2]": {"target": "Marinobacter sp. msLacBP6 variant 187C, L70M, SEQ ID NO: 53, Badan conjugate", "experiment": "Fluorescence titration of conjugate (affinity tuning)", "type": "binding", "conditions": "λ1 459, λ2 539 nm"}, "[3]": {"system": "Marinobacter sp. msLacBP6 187C mutants (variants of Table 7)", "experiment": "Affinity summary of msLacBP6 187C affinity-tuning mutants", "type": "binding", "from_the_text": "In the PCS we mutated F68 (F98 in ttLacBP1) and D220 (D250 in ttLacBP1). […] It could therefore be considered part of a secondary complementary surface layer (SCS). In the interface we mutated L70 (L100 in ttLacBP1), which is located at the periphery of the lactate-binding site, and forms a contact from the N- to the C-terminal domain across the inter-domain interface.\nBoth PCS and SCS mutations perturbed the spectral shapes of the lactate-mediated responses. […] These affinity-tuned sensors therefore provide a suitable set for clinical chemistry applications."}}, "note": "pKd: −log10 of the molar value. Like-named read-outs stand apart in the source and are kept apart here."}
{"smiles": "C[C@H](O)C(=O)O", "note": "[lactate]", "values": [{"measurement": "pKd", "setting": "[1]", "result": 2.92}, {"measurement": "pKd", "setting": "[2]; read-out: appKd (lactate)", "result": 2.96}, {"measurement": "pKd", "setting": "[2]; read-out: trueKd (lactate)", "result": 3.15}, {"measurement": "effect of F68 mutations on lactate affinity", "setting": "[3]; F68 mutations in 187C background", "result": "did not greatly affect lactate affinity"}, {"measurement": "pKd", "setting": "[3]; read-out: lactate affinities (range over variants), msLacBP6 Acrylodan and Badan conjugate variants", "result": "1.62 to 3.70"}]}
